From patent publication US12403077B2, “Use of a new composition for preventing or slowing the appearance of signs of inflammation” (SOCIETE D'EXPLOITATION DE PRODUITS POUR LES INDUSTRIES …, priority 2018, dated 2025)
Marks after values point to notes of the source that are not given here.

Assays:
[1] = test system: lipase; assay: Anti-lipase activity in tubo (1,2-diglyceride to glycerol, absorbance 570 nm); assay type: biochemical; conditions: positive reference, concentration not given
Description: The subject of the method is to study the capacity of a composition to provoke and regulate the activity of the lipase enzyme by an in tubo method, said enzyme having an inflammatory action. Lipase has the capacity to convert the colorless 1,2-diglyceride into glycerol, which is pink in color. The samples for the evaluation test are placed in tubo in the presence of lipase and of 1,2-diglyceride, and the absorbance of the samples is measured in a spectrophotometer at a wavelength of 570 nm at the end of their preparation, then after 60 minutes of incubation at 37° C. under the same spectral conditions. By virtue of a range of glycerol, the lipase activity of the samples can be calculated, as can the percentage inhibition, by the following formulas: Lipase activity=(amount of glycerol formed between 0 and 60 minutes)/(60 minutes×sample volume) Percentage inhibition=100×[(lipase activity of control group)−(lipase activity of test product)]/(lipase activity of control group) Statistical Elements: The values are expressed as means+/−standard deviation. The statistical analysis of the results was conducted using a two-sided Student test with a significance threshold set at 5%, by pairwise comparison of the series of values. […]

[2] = test system: TLR-3; assay: IL-8 and hBD2 production by normal human keratinocytes, TLR-3 activated by poly(I:C) (ELISA); assay type: cell-based; conditions: cells stimulated with poly(I:C), 100 nM
Description: The anti-inflammatory effect of compositions was evaluated on normal human keratinocytes under conditions imitating an imbalance in the cutaneous microbiota through the activation of 3 TLRs (Toll-Like Receptors). These receptors are activated by recognition of specific elements of the microbes, and their function is to alert the immune system in order to activate the body's defenses. In this model, the imbalance in the microbiota was modeled with various stimuli imitating a skin infection: • TLR-5 was activated by flagellin (the main protein of the flagellar filament, present in virtually all bacteria) • TLR-2 was activated by zymosan (glycoprotein complex extracted from yeast membranes) • TLR-3 was activated by poly(I:C) (a synthetic analog of the double-stranded RNA found in viruses)
The effect of the compositions tested was evaluated on the basis of their capacity to modulate the production of IL-8 and of hBD2 induced by these stimuli, using specific “ELISA” kits. The concentration of total proteins was also evaluated, in order to standardize the production of cytokin (IL-8) and of antimicrobial peptide (hBD2).
The values are expressed as means+/−sem [standard error of the mean=standard deviation/root (number of values)].
For each treatment, a calculation was made of: % protection=100×[mean (cells+treatment)−mean (stimulated cells)]/[mean (unstimulated cells)−mean (stimulated cells)] The statistical analysis of the results was conducted using a two-sided Student test with a significance threshold set at 5%, by pairwise comparison of the series of values. A difference between the efficacy of two products is considered to be: • significant if p<0.05; • “at the limit of significance” if 0.05≤p<0.1; • and not significant if p>0.1. B.2.2. Results Obtained In the three tables which follow: For stimulated cells: *** p<0.001 vs unstimulated cells. For treated and stimulated cells: *** p<0.001 vs stimulated cells. The results obtained following activation of TLR-5 by flagellin, the results are set out in table 10 below: […]

Lipase activity ([1]; 60 minutes at 37° C., mean +/- standard deviation)	% inhibition of the lipase ([1]; vs control)	SMILES	IL-8 [2] [pg/mg proteins]	IL-8 % protection [2] [%***]	hBD2 % protection [2] [%***]	hBD2 ([2]; mean +/- sem)
2.11 +/− 0.01 mU/mL	50*** %	O=C1O[C@H]([C@@H](O)CO)C(O)=C1O [Vitamin C]				
		CO/C1=C\C(C)=C\[C@@H](C)[C@@H](O)[C@@H](C)C/C(C)=C/C=C/[C@H](OC)[C@@H]([C@@H](C)[C@@H](O)[C@H](C)[C@@]2(O)C[C@@H](O)[C@H](C)[C@@H](C(C)C)O2)OC1=O [bafilomycin]	<19	100	100	17 +/− 2 pg/mg proteins
